Data: ChEMBL document CHEMBL1201862, “PubChem BioAssay data set” (2004)
Blank lines part the entries; values can stand above or below the compound they belong to. Active and inactive are the calls of the source.

Assays:
[1] = Trypanosoma cruzi growth suppression in host cells – NIH3T3 host cells, beta-gal luminescence, confirmation (AID 2044); format: functional, cell-based;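 further: intracellular parasites grown in NIH/3T3 mouse fibroblasts as host cells; luminescent beta-galactosidase reporter signal from transgenic T. cruzi replicating inside host cells; inhibitors lower the luminescence signal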
[2] = NIH3T3 cell viability loss – ATP luminescence, mouse fibroblasts, counter-screen, dose response (AID 2010); format: functional, cell-based;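 further: cells exposed to compound for about 90 hours before reading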
[3] = target: T1, Probable nicotinate-nucleotide adenylyltransferase (Staphylococcus aureus (strain N315), UniProt P65502); format: functional, Staphylococcus aureus subsp. aureus N315;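 on IC50 Mean: confirmatory dose-response retesting of NadD inhibitor hits first found in an ultra-high-throughput screen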
[4] = target: T1, Probable nicotinate-nucleotide adenylyltransferase; format: functional, Staphylococcus aureus subsp. aureus N315; conditions: read-out: IC50_Mean
[5] = target: T2, Corticotropin-releasing factor receptor 2/Corticotropin-releasing factor-binding protein (Homo sapiens, UniProt P24387+Q13324); assay: Dose Response confirmation of uHTS hits for small molecule antagonists of the CRF-binding protein and CRF-R2 receptor complex.; format: functional; conditions: read-out: IC50_Mean
T2 sequence (Q13324 whole entry): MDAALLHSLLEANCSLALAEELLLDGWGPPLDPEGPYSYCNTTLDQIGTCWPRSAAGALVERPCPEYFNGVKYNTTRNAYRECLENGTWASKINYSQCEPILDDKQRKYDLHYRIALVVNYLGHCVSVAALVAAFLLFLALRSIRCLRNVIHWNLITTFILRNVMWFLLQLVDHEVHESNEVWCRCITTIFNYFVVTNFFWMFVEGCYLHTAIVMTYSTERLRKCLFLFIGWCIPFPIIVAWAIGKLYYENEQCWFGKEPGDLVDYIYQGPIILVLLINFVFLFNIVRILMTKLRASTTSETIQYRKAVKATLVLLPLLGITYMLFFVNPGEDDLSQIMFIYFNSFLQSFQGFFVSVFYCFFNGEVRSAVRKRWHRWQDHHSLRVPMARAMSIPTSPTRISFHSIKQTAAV
T2 sequence (P24387 whole entry): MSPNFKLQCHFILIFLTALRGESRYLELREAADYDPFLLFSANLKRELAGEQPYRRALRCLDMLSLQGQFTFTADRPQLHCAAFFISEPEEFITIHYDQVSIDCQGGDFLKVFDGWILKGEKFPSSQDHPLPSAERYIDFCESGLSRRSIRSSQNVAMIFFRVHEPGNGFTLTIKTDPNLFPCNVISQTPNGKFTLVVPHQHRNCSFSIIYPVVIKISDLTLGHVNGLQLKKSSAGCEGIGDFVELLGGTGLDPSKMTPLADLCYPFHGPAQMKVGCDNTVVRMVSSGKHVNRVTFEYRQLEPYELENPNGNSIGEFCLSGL

[6] = target: T2, Corticotropin-releasing factor receptor 2/Corticotropin-releasing factor-binding protein; assay: activators of CRF receptor 2 with binding protein – uHTS hits, confirmation (AID 602473); format: functional; conditions: read-out: EC50_Mean
[7] = blockers of CRF-binding protein–CRF-R2 complex – cell-based, uHTS hits, 384-well, dose response (AID 651639); format: functional, Homo sapiens; conditions: read-out: IC50_Mean
[8] = target: T3, Sentrin-specific protease 1 (Homo sapiens, UniProt Q9P0U3); assay: SENP1 catalytic domain blockers, concentration series – biochemical, kinetic FRET, dose response (AID 651697); format: functional; conditions: read-out: IC50_Mean
T3 sequence (Q9P0U3 whole entry): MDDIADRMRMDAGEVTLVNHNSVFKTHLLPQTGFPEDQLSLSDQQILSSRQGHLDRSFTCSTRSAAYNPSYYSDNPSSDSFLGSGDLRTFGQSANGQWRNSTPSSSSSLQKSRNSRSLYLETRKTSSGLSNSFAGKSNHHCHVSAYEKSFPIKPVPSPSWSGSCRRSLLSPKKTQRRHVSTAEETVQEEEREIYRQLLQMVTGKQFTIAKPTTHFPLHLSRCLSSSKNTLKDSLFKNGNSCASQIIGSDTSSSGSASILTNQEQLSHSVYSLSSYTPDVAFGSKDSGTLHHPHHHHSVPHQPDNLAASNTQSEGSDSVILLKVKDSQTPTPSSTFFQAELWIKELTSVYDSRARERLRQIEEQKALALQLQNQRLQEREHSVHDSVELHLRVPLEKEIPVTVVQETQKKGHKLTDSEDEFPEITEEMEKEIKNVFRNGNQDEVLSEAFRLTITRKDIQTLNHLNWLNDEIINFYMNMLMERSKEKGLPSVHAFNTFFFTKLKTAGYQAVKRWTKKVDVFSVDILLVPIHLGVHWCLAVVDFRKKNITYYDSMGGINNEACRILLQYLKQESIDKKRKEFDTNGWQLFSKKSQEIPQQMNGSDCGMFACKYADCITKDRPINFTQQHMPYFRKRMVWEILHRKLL

[9] = target: T3, Sentrin-specific protease 1; assay: Dose response confirmation of small molecule inhibitors of the catalytic domain of the SUMO protease, SENP1 in a FRET assay.; format: functional; conditions: read-out: IC50_Mean
[10] = viability of uninfected HEp-2 cells – cell-based, HTS, cytotoxicity control for RSV inhibitor project, dose response (AID 2410); format: functional; conditions: human respiratory syncytial virus
[11] = target: T4, Low molecular weight phosphotyrosine protein phosphatase (Homo sapiens, UniProt P24666); format: functional; conditions: read-out: IC50_Mean;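 further: Dose-response confirmation assay measuring inhibition of LMPTP enzyme activity by fluorescence intensity read-out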
T4 sequence (P24666 whole entry): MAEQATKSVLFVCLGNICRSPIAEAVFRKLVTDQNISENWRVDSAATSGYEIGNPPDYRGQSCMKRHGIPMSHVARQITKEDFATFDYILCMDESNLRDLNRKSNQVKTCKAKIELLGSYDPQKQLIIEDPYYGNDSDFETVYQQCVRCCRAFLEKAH

Caspase-3 [12] = target: T5, Caspase-3 (Homo sapiens, UniProt P42574); format: functional
T5 sequence (P42574 whole entry): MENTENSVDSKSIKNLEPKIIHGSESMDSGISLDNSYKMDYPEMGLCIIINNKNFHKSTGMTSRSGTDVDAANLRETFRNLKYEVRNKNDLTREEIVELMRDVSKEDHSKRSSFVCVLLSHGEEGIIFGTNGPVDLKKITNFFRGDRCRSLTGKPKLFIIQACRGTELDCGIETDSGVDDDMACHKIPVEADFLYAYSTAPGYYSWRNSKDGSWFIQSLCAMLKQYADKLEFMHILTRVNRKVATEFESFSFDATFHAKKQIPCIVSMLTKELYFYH

[13] = target: T6, Sentrin-specific protease 7 (Homo sapiens, UniProt Q9BQF6); format: functional;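 further: Luminescence-based dose-response confirmation of ultra-high-throughput screening hits, measuring inhibition of SENP7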
T6 sequence (Q9BQF6 whole entry): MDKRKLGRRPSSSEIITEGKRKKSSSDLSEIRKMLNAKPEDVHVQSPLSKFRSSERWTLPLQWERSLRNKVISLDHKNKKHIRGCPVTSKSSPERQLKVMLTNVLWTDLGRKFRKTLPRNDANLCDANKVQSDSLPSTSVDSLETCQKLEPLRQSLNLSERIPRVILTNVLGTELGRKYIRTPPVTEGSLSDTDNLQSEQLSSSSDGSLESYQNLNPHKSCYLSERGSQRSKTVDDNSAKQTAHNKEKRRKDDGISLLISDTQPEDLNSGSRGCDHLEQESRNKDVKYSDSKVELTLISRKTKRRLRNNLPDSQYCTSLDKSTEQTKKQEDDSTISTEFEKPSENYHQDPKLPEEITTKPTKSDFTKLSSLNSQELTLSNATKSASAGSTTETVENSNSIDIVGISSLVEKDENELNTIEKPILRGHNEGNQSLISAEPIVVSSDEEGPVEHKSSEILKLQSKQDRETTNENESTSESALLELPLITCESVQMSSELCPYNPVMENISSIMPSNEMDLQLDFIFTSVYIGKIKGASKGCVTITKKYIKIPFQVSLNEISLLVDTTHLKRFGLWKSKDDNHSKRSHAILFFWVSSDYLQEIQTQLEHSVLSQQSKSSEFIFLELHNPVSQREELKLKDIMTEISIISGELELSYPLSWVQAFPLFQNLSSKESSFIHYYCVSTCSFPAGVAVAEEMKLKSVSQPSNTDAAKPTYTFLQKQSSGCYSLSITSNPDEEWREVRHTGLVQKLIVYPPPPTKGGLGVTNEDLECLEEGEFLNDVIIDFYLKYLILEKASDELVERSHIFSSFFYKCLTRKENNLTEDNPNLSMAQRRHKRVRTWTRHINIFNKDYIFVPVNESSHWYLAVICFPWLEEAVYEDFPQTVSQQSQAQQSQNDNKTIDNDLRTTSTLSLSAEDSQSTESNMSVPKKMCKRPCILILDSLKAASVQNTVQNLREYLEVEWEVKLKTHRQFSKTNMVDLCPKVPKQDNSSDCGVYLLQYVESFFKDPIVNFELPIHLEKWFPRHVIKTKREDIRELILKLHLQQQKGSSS

[14] = target: T7, Sentrin-specific protease 6 (Homo sapiens, UniProt Q9GZR1); format: functional
T7 sequence (Q9GZR1 whole entry): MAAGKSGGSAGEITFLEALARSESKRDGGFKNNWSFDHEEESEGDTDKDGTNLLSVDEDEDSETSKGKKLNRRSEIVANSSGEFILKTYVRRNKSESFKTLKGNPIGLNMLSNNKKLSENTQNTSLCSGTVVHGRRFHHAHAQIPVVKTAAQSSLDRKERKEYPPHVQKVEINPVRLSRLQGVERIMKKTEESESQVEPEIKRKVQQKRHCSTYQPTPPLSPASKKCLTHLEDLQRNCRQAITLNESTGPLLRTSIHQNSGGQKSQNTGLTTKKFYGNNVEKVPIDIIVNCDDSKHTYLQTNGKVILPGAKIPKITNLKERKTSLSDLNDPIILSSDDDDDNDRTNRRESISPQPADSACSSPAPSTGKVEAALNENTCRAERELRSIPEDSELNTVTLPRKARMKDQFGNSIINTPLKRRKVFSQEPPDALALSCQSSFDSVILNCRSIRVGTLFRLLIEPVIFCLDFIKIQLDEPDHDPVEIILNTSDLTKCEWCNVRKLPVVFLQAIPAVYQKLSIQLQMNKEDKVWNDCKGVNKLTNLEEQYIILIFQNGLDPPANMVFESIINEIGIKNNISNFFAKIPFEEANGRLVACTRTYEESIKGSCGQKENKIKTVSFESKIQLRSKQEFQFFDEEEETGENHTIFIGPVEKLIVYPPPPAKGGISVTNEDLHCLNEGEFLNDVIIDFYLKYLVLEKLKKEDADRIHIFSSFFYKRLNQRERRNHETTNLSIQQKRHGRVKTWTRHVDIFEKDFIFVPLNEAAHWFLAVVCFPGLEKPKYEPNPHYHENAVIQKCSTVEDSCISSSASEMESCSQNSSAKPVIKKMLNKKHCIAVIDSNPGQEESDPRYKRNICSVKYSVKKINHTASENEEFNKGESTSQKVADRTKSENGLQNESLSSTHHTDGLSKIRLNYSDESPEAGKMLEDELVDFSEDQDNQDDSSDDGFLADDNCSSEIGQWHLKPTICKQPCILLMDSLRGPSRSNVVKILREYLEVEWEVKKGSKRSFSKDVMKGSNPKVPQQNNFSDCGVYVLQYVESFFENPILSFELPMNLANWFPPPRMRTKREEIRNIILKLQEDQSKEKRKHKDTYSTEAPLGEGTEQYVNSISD

[15] = target: T8, Sentrin-specific protease 8 (Homo sapiens, UniProt Q96LD8); format: functional;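 further: luminescence read-out of SENP8 inhibition, dose-response confirmation following an ultra-high-throughput screen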
T8 sequence (Q96LD8 whole entry): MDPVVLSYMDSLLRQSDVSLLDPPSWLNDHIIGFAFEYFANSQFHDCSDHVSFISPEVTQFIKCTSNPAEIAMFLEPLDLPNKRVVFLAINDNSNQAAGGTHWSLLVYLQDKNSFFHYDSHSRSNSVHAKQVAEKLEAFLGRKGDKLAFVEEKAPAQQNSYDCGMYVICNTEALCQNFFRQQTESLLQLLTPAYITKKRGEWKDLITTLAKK

[16] = target: T8, Sentrin-specific protease 8; assay: inhibition of human SENP8 cleavage activity – biochemical, luminescence, SAR follow-up (AID 504501); format: functional
Caspase-3 [17] = target: T5, Caspase-3; assay: SAR Analysis of small molecule inhibitors of Sentrin-specific proteases (SENPs) using a Caspase-3 Selectivity assay. [Related pubchem assays (depositor defined):AID2540, AID2599, AID434973, AID489001]; format: functional
[18] = target: T7, Sentrin-specific protease 6; assay: SAR Analysis of small molecule inhibitors of Sentrin-specific protease 6 (SENP6) using a Luminescent assay. [Related pubchem assays (depositor defined):AID2582, AID2599]; format: functional
[19] = target: T6, Sentrin-specific protease 7; assay: inhibition of human SENP7 cleavage activity – biochemical, luminescence, SAR follow-up (AID 504497); format: functional

Compound: Cc1c(C(=O)N2CC3(CC(c4cccc(NC(=O)CC(c5ccccc5)c5ccccc5)c4)=NO3)C[C@@H]2C(N)=O)cc([N+](=O)[O-])cc1[N+](=O)[O-] (some centres not stated)
EC50 [1]: 1.05 µM (active)
EC50 [2]: > 60 µM (not active)
IC50 [3]: 16.8 µM (active)
IC50 [4]: 38.4 µM (active)

Compound: COC(=O)C1=NN(c2ccccc2)C2(S1)SC(C(C)=O)=C(C)N2c1ccccc1 (configuration not stated)
IC50 [5]: 25.7 µM (active)
EC50 [6]: > 53 µM (inactive)
IC50 [7]: 19 µM (active)

Compound: COc1ccc(Nc2cc(C)nc3ncnn23)cc1Cl
IC50 [8]: 40.8 µM (inactive)
IC50 [9]: 19.6 µM (active)

Compound: CCn1cc(C(=O)O)c(=O)c2cc(F)c(N3CCN(C(=O)Nc4ccccc4)CC3)cc21
CC50 [10]: > 50 µM (active)
IC50 [11]: 73.1 µM (inactive)
IC50 (cells): 26.9 µM (active)

Compound: O=C(Nc1cc2c(cc1Cl)-c1ccc([N+](=O)[O-])cc1C2=NO)C(F)(F)F
IC50 [8]: 12.5 µM (active)
IC50 [9]: 2.89 µM (active)

The next lines start with results.

IC50 [5]: < 0.368 µM (active)
EC50 [6]: > 53 µM (inactive)
IC50 [7]: > 20 µM (inactive)
Compound: Cc1nn(Cc2ccc(Cl)cc2)c(C)c1NC(=O)c1ccc([N+](=O)[O-])cc1

IC50 [3]: 9.8 µM (active)
IC50 [4]: 38.2 µM (active)
Compound: O=C(Nc1ccc(S(=O)(=O)Nc2nccs2)cc1)c1cccc(N2C(=O)c3ccccc3C2=O)c1

IC50 (Caspase-3 [12]): > 100 µM (inactive)
IC50 [13]: > 100 µM (inactive)
IC50 [14]: 13.5 µM (active)
IC50 (Caspase-3 [17]): 1.41 µM (active)
IC50 [18]: 0.905 µM (active)
IC50 [19]: 0.896 µM (active)
Compound: CSc1nc2ccc(NC(=O)c3cc4ccccc4o3)cc2s1
IC50 [15]: 94.3 µM (active)
IC50 [16]: 0.869 µM (active)
